Assay results published in patent US20260274814A1, “THIENYL COMPOUNDS FOR THE TREATMENT OF A CENTRAL NERVOUS SYSTEM DISEASE OR DISORDER” (Coreterra Therapeutics, Inc., priority 2023, published 2026).
Structures can show the parent of a compound that is named as a salt. Where two headings read alike, the source gives them in different places.

Test system: mice
Experiment: Neuropharmacological Assay (SmartCube): automated behavioral signature of compound-treated mice compared with a database of reference drug classes
Type: in vivo
Conditions: for minimal effective dose: Mus musculus, ip; for minimal effective dose / MED / MED (minimal effective dose): i.p., if only one dose was tested, that dose is shown
Method in brief: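 Probabilities of matching each neuropharmacological class (e.g. anxiolytic, antidepressant) come from algorithmic analysis of digitally recorded behaviour, reported for 3.0 mg/kg. Compounds were given intraperitoneally in a Pharmasolve/PEG/propylene glycol vehicle 15 min pre-test. Minimal effective dose is the lowest dose reaching 45% or more total activity.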

[1] = minimal effective dose: dose having 45% or more total activity in SmartCube, read-out: MED
[2] = SmartCube probability class, 3.0 mg/kg dose, i.p. 15 min before the behavioral test
[3] = SmartCube probability class, 3.0 mg/kg dose, i.p. 15 min before the behavioral test, hydrochloride, 3 mg/kg
[4] = minimal effective dose: dose having 45% or more total activity in SmartCube, hydrochloride
[5] = dose having 45% or more total activity in SmartCube, read-out: MED (minimal effective dose)
[6] = probability that activity matches this class of agents, 3.0 mg/kg i.p., 15 min before test
[7] = probability that activity matches this class of agents, 3.0 mg/kg i.p., 15 min before test, 3 mg/kg
[8] = dose having 45% or more total activity in SmartCube

CNC1Cc2scc(C3CC3)c2C1 (single isomer, unassigned) [Compound 320, 3-cyclopropyl-N-methyl-5,6-dihydro-4H-cyclopenta[b]thiophen-5-amine hydrochloride]
ND (^ <4%): AD [2] | AG [2] | AN [2] | CE [2] | HL [2] | MS [2] | PS [2] | SH [2] | AP [3] | AX [3]
++ (≥24%): UK [3]
> 3 mg/kg: minimal effective dose [1]

CNC1Cc2scc(C3CC3)c2C1 (single isomer, unassigned) [Compound 321, 3-cyclopropyl-N-methyl-5,6-dihydro-4H-cyclopenta[b]thiophen-5-amine hydrochloride]
+ (≥4%): AP [3]
++++ (≥74%): AX [3]
3 mpk: MED [4]
ND (^ <4%): AD [2] | AG [2] | AN [2] | CE [2] | HL [2] | MS [2] | PS [2] | SH [2] | UK [3]

CNC1COc2c(C3CC3)csc2C1 (single isomer, unassigned) [Compound 324, 3-cyclopropyl-N-methyl-6,7-dihydro-5H-thieno[3,2-b]pyran-6-amine hydrochloride]
ND (^ <4%): AG [2] | AN [2] | AP [2] | AX [2] | CE [2] | HL [2] | MS [2] | PS [2] | SH [2] | UK [3]
+ (≥4%): AD [3]
3 mg/kg: minimal effective dose [1]

CNC1COc2c(C3CC3)csc2C1 (single isomer, unassigned) [Compound 325, 3-cyclopropyl-N-methyl-6,7-dihydro-5H-thieno[3,2-b]pyran-6-amine hydrochloride]
ND (^ <4%): AG [2] | AN [2] | AP [2] | AX [2] | CE [2] | HL [2] | MS [2] | PS [2] | SH [2] | AD [3]
3 mpk: MED (minimal effective dose: dose having 45% or more total activity in SmartCube)
++ (≥24%): UK [3]

NC1COc2c(C3CC3)csc2C1 (single isomer, unassigned) [Compound 329, 3-cyclopropyl-6,7-dihydro-5H-thieno[3,2-b]pyran-6-amine hydrochloride]
< 3 mg/kg: minimal effective dose [1]
++++ (≥74%): AD [3]
ND (^ <4%): AG [2] | AN [2] | AP [2] | AX [2] | CE [2] | HL [2] | MS [2] | PS [2] | SH [2] | UK [3]

NC1COc2c(C3CC3)csc2C1 (single isomer, unassigned) [Compound 330, 3-cyclopropyl-6,7-dihydro-5H-thieno[3,2-b]pyran-6-amine hydrochloride]
ND (^ <4%): AG [2] | AN [2] | AP [2] | AX [2] | CE [2] | HL [2] | MS [2] | PS [2] | SH [2] | AD [3]
>3 mpk: MED [4]
+ (≥4%): UK [3]

CNC1CCc2sc(F)cc2C1 (single isomer, unassigned; enantiomer 1) [Compound 98, 2-fluoro-N-methyl-4,5,6,7-tetrahydrobenzothiophen-5-amine hydrochloride enantiomer 1]
3 mg/kg: minimal effective dose [5]
++ (≥24%): AP [7] | UK [7]
+ (≥4%): AX [7]
ND (^ <4%): AD [6] | AG [6] | AN [6] | CE [6] | HL [6] | MS [6] | PS [6] | SH [6]

CNC1(C)CCc2cscc2C1 (single isomer, unassigned; enantiomer 1) [Compound 101, N, 5-dimethyl-6,7-dihydro-4H-2-benzothiophen-5-amine hydrochloride enantiomer 1]
ND (^ <4%): AG [6] | AN [6] | AP [6] | AX [6] | CE [6] | HL [6] | MS [6] | SH [6] | UK [6] | PS [7]
3 mpk: MED (minimal effective dose) [8]
++++ (≥74%): AD [6]

CNC1CCc2c(C)sc(C(F)(F)F)c2C1 (single isomer, unassigned; enantiomer 1) [Compound 104, N, 1-dimethyl-3-(trifluoromethyl)-4,5,6,7-tetrahydro-2-benzothiophen-5-amine hydrochloride enantiomer 1]
3 mg/kg: minimal effective dose [5]
ND (^ <4%): AD [6] | AG [6] | AN [6] | AX [6] | CE [6] | HL [6] | MS [6] | PS [6] | SH [6]
++ (≥24%): AP [7] | UK [7]

CNC1CCc2c(C(F)(F)F)sc(C)c2C1 (single isomer, unassigned; enantiomer 1) [Compound 106, N, 3-dimethyl-1-(trifluoromethyl)-4,5,6,7-tetrahydro-2-benzothiophen-5-amine hydrochloride enantiomer 1]
++ (≥24%): UK [7]
ND (^ <4%): AG [6] | AN [6] | AP [6] | AX [6] | CE [6] | HL [6] | MS [6] | PS [6] | SH [6]
3 mpk: MED (minimal effective dose) [8]
+ (≥4%): AD [7]

CNC1CCc2sc(F)cc2C1 (single isomer, unassigned; enantiomer 2) [Compound 99, 2-fluoro-N-methyl-4,5,6,7-tetrahydrobenzothiophen-5-amine hydrochloride enantiomer 2]
3 mpk: MED (minimal effective dose) [8]
ND (^ <4%): AD [6] | AG [6] | AN [6] | CE [6] | HL [6] | MS [6] | PS [6] | SH [6] | AP [7] | AX [7]
+++ (≥49%): UK [7]

CNC1(C)CCc2cscc2C1 (single isomer, unassigned; enantiomer 2) [Compound 102, N, 5-dimethyl-6,7-dihydro-4H-2-benzothiophen-5-amine hydrochloride enantiomer 2]
++++ (≥74%): AD [6]
+ (≥4%): PS [7]
1 mpk: MED (minimal effective dose) [8]
ND (^ <4%): AG [6] | AN [6] | AP [6] | AX [6] | CE [6] | HL [6] | MS [6] | SH [6] | UK [6]

CNC1CCc2c(C)sc(C(F)(F)F)c2C1 (single isomer, unassigned; enantiomer 2) [Compound 105, N, 1-dimethyl-3-(trifluoromethyl)-4,5,6,7-tetrahydro-2-benzothiophen-5-amine hydrochloride enantiomer 2]
ND (^ <4%): AD [6] | AG [6] | AN [6] | AX [6] | CE [6] | HL [6] | MS [6] | PS [6] | SH [6] | AP [7] | UK [7]
>3 mpk: MED (minimal effective dose) [8]

CNC1CCc2c(C(F)(F)F)sc(C)c2C1 (single isomer, unassigned; enantiomer 2) [Compound 107, N, 3-dimethyl-1-(trifluoromethyl)-4,5,6,7-tetrahydro-2-benzothiophen-5-amine hydrochloride enantiomer 2]
10 mpk: MED (minimal effective dose) [8]
ND (^ <4%): AG [6] | AN [6] | AP [6] | AX [6] | CE [6] | HL [6] | MS [6] | PS [6] | SH [6] | AD [7] | UK [7]

CNC1Cc2cscc2C1.Cl [Compound 21, N-methyl-5,6-dihydro-4H-cyclopenta[c]thiophen-5-amine hydrochloride]
ND (^ <4%): AD [6] | AG [6] | AN [6] | AP [6] | AX [6] | CE [6] | HL [6] | MS [6] | PS [6] | SH [6]
+++ (≥49%): UK [6]
3 mg/kg: minimal effective dose [5]
